Results on 3 compounds are retold here after paper PMC4793301, “From chlorite dismutase towards HemQ–the role of the proximal H-bonding network in haeme binding” (Bioscience Reports, 2016).

For experiment [1], the target named is NdCld wild-type. As to the kind of experiment: Titration of SCN− and F− to NdCld wild-type, UV–vis, dissociation constant. To be noted: pH 5.5, 25°C. In kind it is binding, Candidatus Nitrospira defluvii. As for the experimental part:
SCN^− and F^− were titrated to NdCld wild-type for the determination of the dissociation constant (KD). The UV–visible electronic absorption spectrum of wild-type NdCld is altered upon binding of SCN^− or F^− if the respective ligand acts as a sixth ligand to haeme b. Binding of F^− was monitored by the change in absorbance at 612 nm [charge transfer band (CT1)] and binding of SCN^− was followed at 411 nm (Soret band). The measurements were performed using a Zeiss Specord S10 DiodeArray spectrophotometer equipped using a quartz cuvette with a path length of 10 mm under constant stirring at 25°C. Samples of 2 μM concentration in 50 mM MES buffer, pH 5.5, were used. Final ligand concentrations were 120 mM (F^−) and 50 mM (SCN^−).

Experiment [2] concerns the target T1, NdCld (chlorite dismutase from 'Candidatus Nitrospira defluvii') (Nitrospira defluvii, UniProt B3U4H7).
T1 sequence (B3U4H7 27-264): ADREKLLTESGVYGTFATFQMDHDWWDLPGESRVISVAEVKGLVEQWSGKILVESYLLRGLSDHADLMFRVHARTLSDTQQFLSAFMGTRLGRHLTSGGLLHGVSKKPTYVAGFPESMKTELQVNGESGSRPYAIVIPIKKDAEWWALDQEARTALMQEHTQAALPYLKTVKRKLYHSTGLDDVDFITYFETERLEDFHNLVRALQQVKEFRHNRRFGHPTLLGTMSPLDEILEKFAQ
More on the design: gene cld. The settings on record: 200 mM fluoride, 175 μM chlorite, 50 nM enzyme, 50 mM MES pH 5.5, 30 °C.

Experiment [3] deals with T1, NdCld (chlorite dismutase from 'Candidatus Nitrospira defluvii'). As to the kind of experiment: biochemical. Also noted: gene cld.
The target is the same in experiment [4]. The experiment in a line: DSC, absolute Tm with ligand. In kind it is binding. Also noted: gene cld; TEV-cleavable N-terminal Strep-II tag, modified pET-21b(+), E. coli Tuner (DE3) with hemin added; haeme b pentamer. The settings on record: 50 mM MES pH 5.5. For orientation: DSC measures the heat that a sample takes up or gives off during a temperature scan.

The test system of experiment [5] is NdCld (chlorite dismutase), substrate chlorite. As to the kind of experiment: Chlorite degradation, O2 release with Clark-type electrode (steady state). The experiment is classed as biochemical, Candidatus Nitrospira defluvii. The settings on record: 200 mM fluoride, 175 μM chlorite, pH 5.5.
Description: Cld-mediated chlorite reduction and concomitant oxygen generation was monitored by measuring the release of O2 using a Clark-type electrode (Oxygraph Plus; Hansatech Instruments). The electrode was inserted into a stirred water bath maintained at 30°C. The electrode was equilibrated to 100% O2 saturation by flushing with O2, further 0% saturation was achieved by bubbling with N2 until a plateau was reached. Reactions were carried out in O2-free 50 mM MES buffer, pH 5.5. […] A high excess of ligands (200 mM F^−, 10 mM SCN^−) was present in the respective measurements. […] Molecular oxygen production rates (μM O2 s^−1) were obtained from the initial linear time traces (initial velocities, v0) for direct comparison.
In experiment [6] the target is SaHemQ. Also noted: method as in PMID 23737523. To be noted: read-out: KD of haeme binding; cited from earlier work.
For experiment [7], the target named is BsHemQ. Also noted: method as in PMID 20543190. To be noted: read-out: KD of haeme binding; cited from earlier work.
The target of experiment [8] is LmHemQ. More on the design: method as in PMID 25602700. To be noted: read-out: KD of haeme binding; cited from earlier work.
In experiment [9] the target is T1, NdCld (chlorite dismutase from 'Candidatus Nitrospira defluvii'). The experiment in a line: UV-vis titration, Soret band […] nm. The experiment is classed as binding. Also noted: gene cld; TEV-cleavable N-terminal Strep-II tag, modified pET-21b(+), E. coli Tuner (DE3) with hemin added; haeme b pentamer.

`F` [F^−, fluoride]: the Kd in experiment [1] (F− to wild-type protein) and in [3] was 5900 ± 400 µM throughout. In addition, the v0 remaining in [2] is given as 53%. Also, the Tm in experiment [4] (200 mM fluoride) came out at 102 °C. In addition, in experiment [5], the “v0 of wild-type NdCld remaining relative to ligand free” value is recorded as 53%.
Consider `C=CC1=C(C)c2cc3[n-]c(cc4[n-]c(cc5nc(cc1n2)C(C)=C5C=C)c(C)c4CCC(=O)O)c(CCC(=O)O)c3C.[Fe+2]` [haeme, haeme b], for which the Kd (in general, a measure of binding affinity in units of concentration) in experiment [6] was 1 µM; in experiment [7], 30 to 40 µM; in experiment [8], 7 to 16 µM.
Regarding `N#CS` [SCN^−, thiocyanate], the Kd in experiment [9] and in [1] (SCN− to wild-type protein) was 150 ± 40 µM throughout. The Tm in experiment [4] (10 mM thiocyanate, main peak) was determined as 94 °C.
